{
  "source": "paper doi:10.1101/2022.04.14.488411v1",
  "about": "(biorxiv, 2022)",
  "key": {"RPMI 8226 [1]": {"test_system": "RPMI 8226", "assay": "cells", "conditions": "Homo sapiens, RPMI-8226, 72 h, read-out: IC50 (uM)"}, "RPMI 8226 [2]": {"test_system": "RPMI 8226", "assay": "cells", "conditions": "Homo sapiens, RPMI-8226, 72 h, read-out: IC50 (uM)", "remark": "listed apart in the source"}, "ABCG2 [3]": {"test_system": "ABCG2", "assay": "cells", "conditions": "Homo sapiens, RPMI-8226, 72 h, read-out: IC50 (uM)"}, "RPMI 8226 [4]": {"test_system": "RPMI 8226", "assay": "cells", "conditions": "Homo sapiens, RPMI-8226, 72 h, read-out: IC50 (uM)", "remark": "listed apart in the source"}, "ABCG2 [5]": {"target": "T1, ABCG2 (Homo sapiens, UniProt Q9UNQ0)", "T1 sequence (Q9UNQ0 1-655)": "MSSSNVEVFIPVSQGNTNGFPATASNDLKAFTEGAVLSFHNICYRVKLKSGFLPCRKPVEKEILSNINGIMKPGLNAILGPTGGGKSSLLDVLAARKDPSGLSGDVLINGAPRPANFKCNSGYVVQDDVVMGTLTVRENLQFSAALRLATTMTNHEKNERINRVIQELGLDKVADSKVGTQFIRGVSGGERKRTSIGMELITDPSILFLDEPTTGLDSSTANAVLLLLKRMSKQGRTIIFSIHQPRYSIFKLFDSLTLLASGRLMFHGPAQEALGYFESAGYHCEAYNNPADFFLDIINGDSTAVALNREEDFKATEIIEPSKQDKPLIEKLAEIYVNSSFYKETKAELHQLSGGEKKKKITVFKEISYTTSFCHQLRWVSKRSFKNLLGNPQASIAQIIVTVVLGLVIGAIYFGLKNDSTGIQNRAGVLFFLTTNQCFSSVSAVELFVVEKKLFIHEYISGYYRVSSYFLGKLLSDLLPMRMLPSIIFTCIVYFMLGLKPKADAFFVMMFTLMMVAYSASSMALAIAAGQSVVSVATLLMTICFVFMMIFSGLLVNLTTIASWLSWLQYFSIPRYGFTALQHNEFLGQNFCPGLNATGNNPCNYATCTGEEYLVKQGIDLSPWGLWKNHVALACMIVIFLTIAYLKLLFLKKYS", "assay": "potentiation of TAK-243 cytotoxicity, Resazurin viability", "type": "cell-based"}, "RPMI 8226 [6]": {"test_system": "RPMI 8226", "assay": "cells", "design": "species or system KMS11", "conditions": "Homo sapiens, RPMI-8226, 72 h, read-out: IC50 (nM), TAK-243 alone"}, "RPMI 8226 [7]": {"test_system": "RPMI 8226", "assay": "cells", "design": "species or system KMS11", "conditions": "Homo sapiens, RPMI-8226, 72 h, read-out: IC50 (nM), TAK-243 alone", "remark": "listed apart in the source"}, "KMS11": {"test_system": "KMS11", "assay": "cells", "design": "species or system RPMI 8226", "conditions": "Homo sapiens, KMS-11, 72 h, read-out: IC50 (nM)"}, "A549": {"test_system": "A549", "assay": "cells", "conditions": "Homo sapiens, A549, 72 h, read-out: IC50 (nM)"}, "HEK293": {"test_system": "HEK293", "assay": "cells", "conditions": "Homo sapiens, HEK293, 72 h, read-out: IC50 (nM)"}, "HepG2": {"test_system": "HepG2", "assay": "cells", "conditions": "Homo sapiens, HepG2, 72 h, read-out: IC50 (nM)"}, "Jurkat": {"test_system": "Jurkat", "assay": "cells", "conditions": "Homo sapiens, Jurkat, 72 h, read-out: IC50 (nM)"}, "K562": {"test_system": "K562", "assay": "cells", "conditions": "Homo sapiens, K562, 72 h, read-out: IC50 (nM)"}, "MCF7": {"test_system": "MCF7", "assay": "cells", "conditions": "Homo sapiens, MCF7, 72 h, read-out: IC50 (nM)"}, "MV4-11": {"test_system": "MV4-11", "assay": "cells", "conditions": "Homo sapiens, MV4-11, 72 h, read-out: IC50 (nM)"}, "NB4": {"test_system": "NB4", "assay": "cells", "conditions": "Homo sapiens, NB-4, 72 h, read-out: IC50 (nM)"}, "OCI-AML2": {"test_system": "OCI-AML2", "assay": "cells", "conditions": "Homo sapiens, OCI-AML2, 72 h, read-out: IC50 (nM)"}, "OCI-M2": {"test_system": "OCI-M2", "assay": "cells", "conditions": "OCI-M2, 72 h, read-out: IC50 (nM)"}, "U937": {"test_system": "U937", "assay": "cells", "conditions": "Homo sapiens, U-937, 72 h, read-out: IC50 (nM)"}, "MDAY-D2": {"test_system": "MDAY-D2", "assay": "cells", "conditions": "Mus musculus, MDAY-D2, 72 h, read-out: IC50 (nM)"}, "RPMI 8226 [8]": {"test_system": "RPMI 8226", "assay": "cells", "conditions": "Homo sapiens, RPMI-8226, 72 h, read-out: IC50 (nM)"}},
  "note": "Read-outs that look alike come from different tables or passages of the source.",
  "data": [
    {"compound": "COc1ccc(CCc2nc3cc(-c4c(C)noc4C)ccc3n2C[C@H](C)N2CCOCC2)cc1Cl", "note": "[SGC-CBP30]", "values": [
      {"measurement": "IC50", "setting": "RPMI 8226 [1]", "result": "> 10", "unit": "µM"}
    ]},
    {"compound": "NS(=O)(=O)OC[C@@H]1C[C@@H](n2ccc3c(N[C@H]4CCc5ccccc54)ncnc32)C[C@@H]1O", "note": "[Pevo, pevonedistat]", "values": [
      {"measurement": "IC50", "setting": "RPMI 8226 [2]", "result": 0.997, "unit": "µM"}
    ]},
    {"compound": "COc1c(C)cc(NC(=O)c2nn(Cc3ccc(F)cc3)c3c2CN(C(=O)c2ccc[nH]2)C[C@]3(C)C(N)=O)cc1C", "note": "[GSK-864]", "values": [
      {"measurement": "IC50", "setting": "RPMI 8226 [1]", "result": "> 10", "unit": "µM"}
    ]},
    {"compound": "N#Cc1ccnc(N2C(=O)CC[C@H]2C(=O)N(c2cncc(F)c2)[C@H](C(=O)NC2CC(F)(F)C2)c2ccccc2Cl)c1", "note": "[Ivosidenib]", "values": [
      {"measurement": "IC50", "setting": "ABCG2 [3]", "result": "> 10", "unit": "µM"},
      {"measurement": "IC50", "setting": "RPMI 8226 [4]", "result": "> 10", "unit": "µM"}
    ]},
    {"compound": "Clc1cc2c(NC3CCCC3)nnc(-c3ccncc3)c2cc1Cl", "note": "[A-196]", "values": [
      {"measurement": "apparent IC50", "setting": "ABCG2 [5]", "result": 521.8, "unit": "nM"},
      {"measurement": "IC50", "setting": "RPMI 8226 [1]", "result": "> 10", "unit": "µM"}
    ]},
    {"compound": "NS(=O)(=O)OC[C@H]1C[C@@H](Nc2ccnc3cc(-c4cccc(SC(F)(F)F)c4)nn23)[C@H](O)[C@@H]1O", "note": "[TAK-243]", "values": [
      {"measurement": "IC50", "setting": "RPMI 8226 [6]", "result": 578, "unit": "nM"},
      {"measurement": "IC50", "setting": "RPMI 8226 [7]", "result": 558, "unit": "nM"},
      {"measurement": "IC50", "setting": "KMS11", "result": 685, "unit": "nM"},
      {"measurement": "IC50", "setting": "A549", "result": 1290, "unit": "nM"},
      {"measurement": "IC50", "setting": "HEK293", "result": 177, "unit": "nM"},
      {"measurement": "IC50", "setting": "HepG2", "result": 60.1, "unit": "nM"},
      {"measurement": "IC50", "setting": "Jurkat", "result": 12.2, "unit": "nM"},
      {"measurement": "IC50", "setting": "K562", "result": 6.43, "unit": "nM"},
      {"measurement": "IC50", "setting": "MCF7", "result": 404, "unit": "nM"},
      {"measurement": "IC50", "setting": "MV4-11", "result": 19.4, "unit": "nM"},
      {"measurement": "IC50", "setting": "NB4", "result": 10.1, "unit": "nM"},
      {"measurement": "IC50", "setting": "OCI-AML2", "result": 27.1, "unit": "nM"},
      {"measurement": "IC50", "setting": "OCI-M2", "result": 44, "unit": "nM"},
      {"measurement": "IC50", "setting": "U937", "result": 17.9, "unit": "nM"},
      {"measurement": "IC50", "setting": "MDAY-D2", "result": 1230, "unit": "nM"},
      {"measurement": "IC50", "setting": "RPMI 8226 [8]", "result": 1370, "unit": "nM"}
    ]},
    {"compound": "COc1ccccc1C(=O)Nc1cc2c(cc1N1CCCC1)n(C)c(=O)n2C", "note": "[PFI-4]", "values": [
      {"measurement": "IC50", "setting": "RPMI 8226 [1]", "result": "> 10", "unit": "µM"}
    ]},
    {"compound": "CCCc1cc(C)[nH]c(=O)c1CNC(=O)c1cc(-c2ccc(N3CCN(C(C)C)CC3)nc2)cc2c1cnn2C(C)C", "note": "[UNC1999]", "values": [
      {"measurement": "IC50", "setting": "RPMI 8226 [1]", "result": "> 10", "unit": "µM"}
    ]},
    {"compound": "O=C1c2c(O)ccc(O)c2C(=O)c2c(NCCNCCO)ccc(NCCNCCO)c21", "note": "[MTX, mitoxantrone]", "values": [
      {"measurement": "IC50", "setting": "RPMI 8226 [2]", "result": 0.0786, "unit": "µM"}
    ]},
    {"compound": "CO[C@H]1CC[C@H](n2c([C@@H]3CCCC(=O)N3c3ccc(F)c(F)c3)nc3cc(-c4c(C)noc4C)ccc32)CC1", "note": "[Inobrodib]", "values": [
      {"measurement": "IC50", "setting": "RPMI 8226 [4]", "result": 7.62, "unit": "µM"}
    ]},
    {"compound": "COc1cc(-c2cn(C)c(=O)c3cnccc23)c(OC)cc1CN(C)C", "note": "[BI-9564]", "values": [
      {"measurement": "IC50", "setting": "ABCG2 [3]", "result": "> 10", "unit": "µM"},
      {"measurement": "IC50", "setting": "RPMI 8226 [4]", "result": "> 10", "unit": "µM"}
    ]}
  ]
}
